Values of other authors in PubChem BioAssay AID1259409 (Chemical Carcinogenesis Research Information System (CCRIS), 2018).

Tested on: rodent chemically induced tumor inhibition, incidence and multiplicity
Experiment: CCRIS tumor inhibitor studies
Details: 937-40-6, Dose [Inhibitor]: 0, Route [Inhibitor]: ORAL, Species: RAT, Promoter: NONE USED

Question: Which “tumour outcome (control, treated, inhibition, significance)” value (Carcinogen: N-NITROSOBENZYLMETHYLAMINE, 1.2 UMOL/G IN DIET FOR DURATION OF STUDY BEGINNING 2 WK PRIOR TO CARCINOGEN TREATMENT (STUDY DURATION: 20 WK), Strain/Sex: F344/MALE, Target Tissue: Type of Lesion: ESOPHAGUS: TUMORS, Dose [Carcinogen]: 0.5 MG/KG IN 0.1 ML OF DMSO 1/WK FOR 18 WK) does the source give for `O=c1oc2c(O)c(O)cc3c(=O)oc4c(O)c(O)cc1c4c23` here?
Answer: The value was 15/15 (100%), 14/15 (93%), 7%, not significant.

Question: What about the “tumour outcome (control, treated, inhibition, significance)” value (Carcinogen: N-NITROSOBENZYLMETHYLAMINE, 1.2 UMOL/G IN DIET FOR DURATION OF STUDY BEGINNING 2 WK PRIOR TO CARCINOGEN TREATMENT (STUDY DURATION: 20 WK), Strain/Sex: F344/MALE, Target Tissue: Type of Lesion: ESOPHAGUS: TUMORS, Dose [Carcinogen]: 1.25 MG/KG IN 0.1 ML OF DMSO 1/WK FOR 18 WK) of the same molecule?
Answer: Its value is 15/15 (100%), 15/15 (100%), 0%, not significant.

Question: And the “tumour outcome (control, treated, inhibition, significance)” value (Carcinogen: N-NITROSOBENZYLMETHYLAMINE, 1.2 UMOL/G IN DIET FOR DURATION OF STUDY BEGINNING 2 WK PRIOR TO CARCINOGEN TREATMENT (STUDY DURATION: 27 WK), Strain/Sex: F344/MALE, Target Tissue: Type of Lesion: ESOPHAGUS: TUMORS, Dose [Carcinogen]: 0.5 MG/KG IN 0.1 ML OF DMSO 1/WK FOR 18 WK)?
Answer: The value was 15/15 (100%), 15/15 (100%), 0%, not significant.

Question: And the “tumour outcome (control, treated, inhibition, significance)” value (Carcinogen: N-NITROSOBENZYLMETHYLAMINE, 1.2 UMOL/G IN DIET FOR DURATION OF STUDY BEGINNING 2 WK PRIOR TO CARCINOGEN TREATMENT (STUDY DURATION: 27 WK), Strain/Sex: F344/MALE, Target Tissue: Type of Lesion: ESOPHAGUS: TUMORS, Dose [Carcinogen]: 1.25 MG/KG IN 0.1 ML OF DMSO 1/WK FOR 18 WK)?
Answer: The value was 15/15 (100%), 15/15 (100%), 0%, not significant.

Question: What about the “tumour outcome (control, treated, inhibition, significance)” value (Carcinogen: N-NITROSOBENZYLMETHYLAMINE, 4 G/KG IN DIET BEGINNING 2 WK PRIOR TO FIRST CARCINOGEN DOSE (STUDY DURATION: 20 WK), Strain/Sex: F-344/MALE, Target Tissue: Type of Lesion: ESOPHAGUS: TUMOR, Dose [Carcinogen]: 0.5, 1.25 MG/KG 1/WK FOR 18 WK) of the same molecule?
Answer: Its value is 15/15 (100%), 12/15 (80%), 20%, not calculated (low dose carcinogen); 15/15 (100.

Question: What about the “tumour outcome (control, treated, inhibition, significance)” value (Carcinogen: N-NITROSOBENZYLMETHYLAMINE, 4 G/KG IN DIET BEGINNING 2 WK PRIOR TO FIRST CARCINOGEN DOSE (STUDY DURATION: 27 WK), Strain/Sex: F-344/MALE, Target Tissue: Type of Lesion: ESOPHAGUS: TUMOR, Dose [Carcinogen]: 0.5, 1.25 MG/KG 1/WK FOR 18 WK) of the same molecule?
Answer: Its value is 15/15 (100%), 15/15 (100%), 0%, not calculated (low dose carcinogen); 15/15 (100.

Question: What about the “tumour outcome (control, treated, inhibition, significance)” value (Carcinogen: N-NITROSOBENZYLMETHYLAMINE, 12 UMOL/G IN DIET FOR DURATION OF STUDY BEGINNING 2 WK PRIOR TO CARCINOGEN TREATMENT (STUDY DURATION: 20 WK), Strain/Sex: F344/MALE, Target Tissue: Type of Lesion: ESOPHAGUS: TUMORS, Dose [Carcinogen]: 0.5 MG/KG IN 0.1 ML OF DMSO 1/WK FOR 18 WK) of the same molecule?
Answer: Its value is 15/15 (100%), 12/15 (80%), 20%, not significant.

Question: What about the “tumour outcome (control, treated, inhibition, significance)” value (Carcinogen: N-NITROSOBENZYLMETHYLAMINE, 12 UMOL/G IN DIET FOR DURATION OF STUDY BEGINNING 2 WK PRIOR TO CARCINOGEN TREATMENT (STUDY DURATION: 20 WK), Strain/Sex: F344/MALE, Target Tissue: Type of Lesion: ESOPHAGUS: TUMORS, Dose [Carcinogen]: 1.25 MG/KG IN 0.1 ML OF DMSO 1/WK FOR 18 WK) of the same molecule?
Answer: Its value is 15/15 (100%), 15/15 (100%), 0%, not significant.

Question: And the “tumour outcome (control, treated, inhibition, significance)” value (Carcinogen: N-NITROSOBENZYLMETHYLAMINE, 12 UMOL/G IN DIET FOR DURATION OF STUDY BEGINNING 2 WK PRIOR TO CARCINOGEN TREATMENT (STUDY DURATION: 27 WK), Strain/Sex: F344/MALE, Target Tissue: Type of Lesion: ESOPHAGUS: TUMORS, Dose [Carcinogen]: 0.5 MG/KG IN 0.1 ML OF DMSO 1/WK FOR 18 WK)?
Answer: Its value is 15/15 (100%), 15/15 (100%), 0%, not significant.

Question: And the “tumour outcome (control, treated, inhibition, significance)” value (Carcinogen: N-NITROSOBENZYLMETHYLAMINE, 12 UMOL/G IN DIET FOR DURATION OF STUDY BEGINNING 2 WK PRIOR TO CARCINOGEN TREATMENT (STUDY DURATION: 27 WK), Strain/Sex: F344/MALE, Target Tissue: Type of Lesion: ESOPHAGUS: TUMORS, Dose [Carcinogen]: 1.25 MG/KG IN 0.1 ML OF DMSO 1/WK FOR 18 WK)?
Answer: The value was 15/15 (100%), 15/15 (100%), 0%, not significant.

Question: What about the “tumour outcome (control, treated, inhibition, significance)” value (Carcinogen: N-NITROSOMETHYLBENZYLAMINE, 400 PPM IN DIET FOR DURATION OF STUDY BEGINNING 1 WK POST CARCINOGEN TREATMENT (STUDY DURATION: 25 WK), Strain/Sex: F344/MALE, Target Tissue: Type of Lesion: ESOPHAGUS: TUMOR, Dose [Carcinogen]: 1 MG/KG 3/WK FOR 5 WK) of the same molecule?
Answer: The value was 15/15 (100%), 14/15 (93%), 7%, not significant.

Question: And the “tumour outcome (control, treated, inhibition, significance)” value (Carcinogen: N-NITROSOMETHYLBENZYLAMINE, 4000 PPM IN DIET FOR DURATION OF STUDY BEGINNING 1 WK POST CARCINOGEN TREATMENT (STUDY DURATION: 25 WK), Strain/Sex: F344/MALE, Target Tissue: Type of Lesion: ESOPHAGUS: TUMOR, Dose [Carcinogen]: 1 MG/KG 3/WK FOR 5 WK)?
Answer: Its value is 15/15 (100%), 10/15 (67%), 33%, p<0.05.
